Results on 1 compound are retold here after patent US20040186046A1, “Treatment of type 1 diabetes with PDE5 inhibitors” (Pfizer Inc, priority 2003, published 2004).

Bounds are passed on as bounds.

The nature of series [1]: Sildenafil mean plasma concentration (free drug) in normal and STZ-treated rats on chronic sc dosing. The class given is in vivo, rat. Particulars: chronic sildenafil 3 × 20 mg/kg sc/day. How it is done:
(§1) To induce Type 1 diabetes, rats of 200-250 g were injected intra-peritoneally with streptozotocin (60 mg/kg) in citrate phosphate buffer, pH4.5 or the equivalent volume of vehicle. The development of non-keturonic hyperglycaemic diabetes was induced within 48 h and was confirmed by determining blood glucose levels in blood obtained from the tail vein of the rats at 48 h after STZ administration and monitored […] thereafter.
Throughout this period blood samples were taken from the tail vein on a weekly basis. These samples were taken prior to dosing so that trough concentrations could be estimated (ie at 6-8 h post dose). A further sample was taken at week 8 ([…] post dosing).

In the next series the test system is U397 cells. Particulars: statement quoted from U.S. Pat. No. 6,479,493, column 38; cited from earlier work.
Series [2] relates to control and STZ-treated rats. Nature of the series: Plasma glucose in control and STZ-treated rats (model of Type 1 diabetes) on chronic sildenafil. The class given is in vivo, rat. To be noted: for minimum glucose levels (Table 3), Change from vehicle / minimum glucose levels (Table 3), Sildenafil group / minimum plasma glucose (Table 2), Change from vehicle / minimum plasma glucose (Table 2), Sildenafil group: sildenafil 60 mg/kg/day sc; for minimum plasma glucose (Table 2), Change from vehicle / minimum plasma glucose (Table 2), Sildenafil group: average, week 2 to week 6; for statistical significance (p) of effect of sildenafil on minimum glucose levels / statistical significance (p) of effect of Sildenafil on average glucose: vs vehicle. The method, then: STZ is a nitrosamine which is toxic to the pancreatic β-cells and STZ-treated rats have been used as an experimental model for Type 1 diabetes (see e.g. Ari et al, Clin Sci (Colch) 1999:96:365).
as §1
The Sildenafil-treated rats were divided in two group—normal and STZ-treated. In addition, there were two non-sildenafil groups—again normal and STZ treated. Throughout this period blood samples were taken from the tail vein on a weekly basis. These samples were taken prior to dosing so that trough concentrations could be estimated (ie at 6-8 h post dose). A further sample was taken at week 8 ([…] post dosing). Plasma from these blood samples, from all rats treated with sildenafil, and some controls, were assayed for sildenafil (and its n-desmethyl metabolite).
The plasma from these samples was stored at −20° C. and analysed for levels of glucose using the Roche/Hitachi 912 Clinical Chemistry Analyzer (Roche Diagnostics Corp., Indianapolis, Ind.) with kits supplied by Roche. All assays were conducted according to instructions provided by the manufacturers.

In the case of `CCCc1nn(C)c2c(=O)[nH]c(-c3cc(S(=O)(=O)N4CCN(C)CC4)ccc3OCC)nc12` [Sildenafil, 5-[2-ethoxy-5-(4-methyl-1-piperazinylsulphonyl)phenyl]-1-methyl-3-n-propyl-1,6-dihydro-7H-pyrazolo[4,3-d]pyrimidin-7-one], the “Sildenafil Mean plasma concentration (free drug)” value in series [1] (Normal rats, 2 weeks (6-8 h post dose), n = 12) turned out to be 36 nM; in series [1] (Normal rats, 4 weeks (6-8 h post dose), n = 12), 45 nM; in series [1] (Normal rats, 6 weeks (6-8 h post dose), n = 12), 45 nM; in series [1] (Normal rats, 8 weeks (32-35 h post dose), n = 12), 28 nM; in series [1] (STZ rats, 2 weeks (6-8 h post dose), N = 6-10), 79 nM; in series [1] (STZ rats, 4 weeks (6-8 h post dose), N = 6-10) it was 41 nM. The “Sildenafil Mean plasma concentration (free drug)” value in series [1] (STZ rats, 6 weeks (6-8 h post dose), N = 6-10) is reported as 57 nM; in series [1] (STZ rats, 8 weeks (32-35 h post dose), N = 6-10), 11 nM. In addition, the induction of apoptosis result in the series on U397 cells is on record as “does not induce apoptosis”. Also, the “minimum glucose levels (Table 3), Change from vehicle” value in series [2] (Control rats) is -13 mg/dL; in series [2] (STZ-treated rats) it was -269 mg/dL. The “minimum glucose levels (Table 3), Sildenafil group” value in series [2] (Control rats) is 176 mg/dL; in series [2] (STZ-treated rats), 462 mg/dL. The entries for the “minimum plasma glucose (Table 2), Change from vehicle” value in series [2] (Control rats) and in series [2] (STZ-treated rats) were -25 mg/dL and -220 mg/dL, respectively. For the same compound, the “minimum plasma glucose (Table 2), Sildenafil group” value worked out at 190 mg/dL in series [2] (Control rats) and 583 mg/dL in series [2] (STZ-treated rats). The “statistical significance (p) of effect of sildenafil on minimum glucose levels” value was less than 0.01 in series [2] (STZ-treated animals, statistically significant effect) and greater than 0.10 in series [2] (control rats, no statistically significant effect). Also, the “statistical significance (p) of effect of Sildenafil on average glucose” value in series [2] (STZ-treated rats) is less than 0.05; in series [2] (control rats), less than 0.01. Moreover, in series [2] (control and STZ-treated rats, decrease greater in STZ-treated animals), the “effect on average plasma glucose (in words)” value is “lowered average glucose in both types of rat”.
